Source: patent publication US8058344B2, “Glycodendrimers having biological activity” (Imperial Innovations Ltd, priority 2002, dated 2011)

Key:
[1] = tested on: human umbilical vein endothelial cells; assay: Endothelial microtubule formation assay on Matrigel; assay type: cell-based; details: 100 μg/ml; 18 h; scale 0-4
Procedure: The endothelial microtubule formation assay was performed by isolating human umbilical vein endothelial cells from umbilical cords within 6 h of delivery by caesarean section. The embilical vein was cannulated and 0.1% collagenase in phosphate buffered saline was introduced and incubated for 20 minutes. The endothelial cells liberated by the collagenase were obtained by washing the umbilical vein with Medium 199. The cells were washed three times with Medium 199 and then cultured in tissue culture flasks coated with fibronectin. Growth media consisted of Medium 199 with 20% foetal bovine serum, 30 μg/ml endothelial cell growth supplement, 10 IU/ml heparin, 100 IU/ml penicillin, 100 μg/1 ml streptomycin and 2 mM L-glutamine. Human umbilical vein endothelial cells were passaged at confluence after treatment with trypsin-EDTA. All cells were used at passages to 6.
Aliquots of Matrigel were dispensed into 35 mm diameter tissue culture dishes on ice and then incubated at 37° C. for 10 min to allow the gel to set. […] At various time points from 8-24 hours, the plates were examined and scored using a published scheme from 0-4, where 0=all adherent cells remain single, and 4=all adherent cells involved in tubular structures. New vessel formation was quantified blind by three different observers at 18 h. […]
Endothelial microtubule formation by HUVECs on Matrigel (×40 magnification). A visual analogue scale was used to determine the extent of tube formation and scored on a scale from 0 (all cells remain single) to 4 (all cells involved in tubular structures) as previously described (Bauer J, Margolis M, Schreiner C, Edgell C-J, Azizkhan J, Lazarowski E, & Juliano R L. (1992) In vitro model of angiogenesis using a human endothelium derived permanent cell line: contributions of induced gene expression, G-proteins and integrins. J. Cellular Physiology 153: 437-449; Liaw, L & Schwartz S M. (1993) Microtubule disruption stimulates DNA synthesis in bovine endothelial cells and potentiates cellular response to basic fibroblast growth factor. […]

[2] = tested on: Sup-T1, C8166, U937, U87-CD4-CCR5 and B16F10 cells; assay: Toxicity in cell lines, MTT assay, stated over all cell lines; assay type: cell-based, human; murine; details: concentrations up to 1,000 μg/ml
Procedure: (§1) The compounds synthesised were evaluated for their toxicity in the following cell lines:—the human T-cell line (Sup-T1), a human T-cell line transformed with HTLV-1 (C8166), the human monocytic cell line (U937), the brain cell line transfected with human CD4 and the human chemokine receptor CCR5 (U87-CD4-CCR5), and the murine melanoma cell line (B16P10).
(§2) Dendrimers, glucosamine, glucosamine 6-sulfate and dendrimer conjugates were incubated with each cell line. […] The conjugates or controls were incubated for 67 h with the cells at concentrations ranging from […]. An MTT assay was then used to determine cell viability and the results were expressed as a percentage of that for cells grown in the absence of any compound.

[3] = tested on: human T-cell line (Sup-T1); assay: Toxicity in cell lines, MTT assay; assay type: cell-based; details: 67 h, ± SEM (n = 16)
Procedure: as §1, §2

[4] = tested on: human monocytic cell line (U937); assay: Toxicity in cell lines, MTT assay; assay type: cell-based; details: U-937, 67 h, ± SEM (n = 16)
Procedure: as §1, §2

[5] = tested on: murine melanoma cell line (B16F10); assay: Toxicity in cell lines, MTT assay; assay type: cell-based; details: Mus musculus, B16-F10, 67 h, ± SEM (n = 16)
Procedure: as §1, §2

[6] = tested on: human T-cell line transformed with HTLV-1 (C8166); assay: Toxicity in cell lines, MTT assay; assay type: cell-based; details: 67 h, ± SEM (n = 16)
Procedure: as §1, §2

[7] = tested on: brain cell line transfected with human CD4 and the human chemokine receptor CCR5 (U87-CD4-CCR5); assay: Toxicity in cell lines, MTT assay; assay type: cell-based; details: 67 h, ± SEM (n = 16)
Procedure: as §1, §2

[8] = tested on: freshly isolated human PBMN cells and human MDM; assay: Toxicity against primary human cells in vitro, MTT assay; assay type: cell-based; details: up to the maximum concentration of 1,000 μg/ml
Procedure: The dendrimers and the dendrimer conjugates were incubated with freshly isolated, human peripheral blood mononuclear (PBMN) cells and with freshly isolated human monocyte-derived-macrophages QDM).
Human PBMN cells and human MDMs were separated from buffy coat residues within 24 h of collection by density gradient centrifugation. […] The monocytes were allowed to differentiate to MDMs by a further 3 days of adherence. The compounds were then added to PBMN cells or to MDMs (1×10^6 cells/ml) and incubated for 67 h. Cell viability was assessed using the MTT assay at 72 h.

Row | SMILES | Tube formation score (n = 4) [1] | toxicity [2] | IC50 [3] [µg/mL] | IC50 [4] [µg/mL] | IC50 [5] [µg/mL] | IC50 [6] [µg/mL] | IC50 [7] [µg/mL] | toxicity to PBMN cells or to MDMs [8]
1 | N[C@H]1C(O)O[C@H](COS(=O)(=O)O)[C@@H](O)[C@@H]1OS(=O)(=O)O (stereo partly shown) [glucosamine 3,6-disulfate] | 4 | – | – | – | – | – | – | –
2 | N[C@H]1C(O)O[C@H](COS(=O)(=O)O)[C@@H](O)[C@@H]1O (stereo partly shown) [glucosamine 6-sulfate] | 4 | no toxicity | > 1000 | > 1000 | > 1000 | > 1000 | > 1000 | not toxic
3 | N[C@H]1C(O)O[C@H](CO)[C@@H](O)[C@@H]1O (stereo partly shown) [glucosamine] | 4 | no toxicity | > 1000 | > 1000 | > 1000 | > 1000 | > 1000 | –
